Measurements reported in article PMC9934367, “Functional impact of subunit composition and compensation on Drosophila melanogaster nicotinic receptors–targets of neonicotinoids” (PLOS Genetics, 2023).

Tested on: D. melanogaster nAChRs
Assay: Comparison of agonist activity between nAChRs expressed in X. laevis oocytes (one-way ANOVA, Kruskal-Wallis);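 as to Difference of Imax values: Imax relative to maximal plateau response to ACh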
Type: cell-based
How it was run: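 Agonist pEC50 values, derived from Hill fits of normalised peak currents, were compared across receptors by one-way ANOVA or Kruskal-Wallis. Currents came from oocytes clamped at −100 mV and perfused with atropine-containing saline (0.5 μM), 3–4 days after cRNA injection of fly nAChR subunits and co-factors.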

[1] = Dα1/Dα2/Dα3/Dβ1 vs. Dα1/Dα2/Dα3/Dβ1/Dβ2
[2] = Dα1/Dα2/Dα3/Dβ1 vs. Dα1/Dα2/Dβ1/Dβ2
[3] = Dα1/Dα2/Dα3/Dβ1 vs. Dα1/Dα3/Dβ1/Dβ2
[4] = Dα1/Dα2/Dα3/Dβ1 vs. Dα1/Dβ1/Dβ2
[5] = Dα1/Dα2/Dα3/Dβ1 vs. Dα2/Dα3/Dβ1/Dβ2
[6] = Dα1/Dα2/Dα3/Dβ1 vs. Dα3/Dβ1/Dβ2
[7] = Dα1/Dα2/Dβ1/Dβ2 vs. Dα1/Dα2/Dα3/Dβ1/Dβ2
[8] = Dα1/Dα2/Dβ1/Dβ2 vs. Dα2/Dα3/Dβ1/Dβ2
[9] = Dα1/Dα2/Dβ1 vs. Dα1/Dα2/Dα3/Dβ1
[10] = Dα1/Dα2/Dβ1 vs. Dα1/Dα2/Dα3/Dβ1/Dβ2
[11] = Dα1/Dα2/Dβ1 vs. Dα1/Dα2/Dβ1/Dβ2
[12] = Dα1/Dα2/Dβ1 vs. Dα1/Dα3/Dβ1/Dβ2
[13] = Dα1/Dα2/Dβ1 vs. Dα2/Dα3/Dβ1/Dβ2
[14] = Dα1/Dα3/Dβ1/Dβ2 vs. Dα1/Dα2/Dα3/Dβ1/Dβ2
[15] = Dα1/Dα3/Dβ1/Dβ2 vs. Dα1/Dα2/Dβ1/Dβ2
[16] = Dα1/Dα3/Dβ1/Dβ2 vs. Dα2/Dα3/Dβ1/Dβ2
[17] = Dα1/Dα3/Dβ1 vs. Dα1/Dα2/Dα3/Dβ1
[18] = Dα1/Dα3/Dβ1 vs. Dα1/Dα2/Dα3/Dβ1/Dβ2
[19] = Dα1/Dα3/Dβ1 vs. Dα1/Dα2/Dβ1/Dβ2
[20] = Dα1/Dα3/Dβ1 vs. Dα1/Dα3/Dβ1/Dβ2
[21] = Dα1/Dα3/Dβ1 vs. Dα2/Dα3/Dβ1/Dβ2
[22] = Dα1/Dβ1/Dβ2 vs. Dα1/Dα2/Dα3/Dβ1/Dβ2
[23] = Dα1/Dβ1/Dβ2 vs. Dα1/Dα2/Dβ1/Dβ2
[24] = Dα1/Dβ1/Dβ2 vs. Dα1/Dα3/Dβ1/Dβ2
[25] = Dα1/Dβ1/Dβ2 vs. Dα2/Dα3/Dβ1/Dβ2
[26] = Dα1/Dβ1 vs. Dα1/Dα2/Dα3/Dβ1/Dβ2
[27] = Dα2/Dα3/Dβ1/Dβ2 vs. Dα1/Dα2/Dα3/Dβ1/Dβ2
[28] = Dα2/Dα3/Dβ1 vs. Dα1/Dα2/Dα3/Dβ1
[29] = Dα2/Dα3/Dβ1 vs. Dα1/Dα2/Dα3/Dβ1/Dβ2
[30] = Dα2/Dα3/Dβ1 vs. Dα1/Dα2/Dβ1/Dβ2
[31] = Dα2/Dα3/Dβ1 vs. Dα1/Dα3/Dβ1/Dβ2
[32] = Dα2/Dα3/Dβ1 vs. Dα2/Dα3/Dβ1/Dβ2
[33] = Dα3/Dβ1/Dβ2 vs. Dα1/Dα2/Dα3/Dβ1/Dβ2
[34] = Dα3/Dβ1/Dβ2 vs. Dα1/Dα2/Dβ1/Dβ2
[35] = Dα3/Dβ1/Dβ2 vs. Dα1/Dα3/Dβ1/Dβ2
[36] = Dα3/Dβ1/Dβ2 vs. Dα2/Dα3/Dβ1/Dβ2
[37] = Dα3/Dβ1 vs. Dα1/Dα2/Dα3/Dβ1/Dβ2

N#C/N=C1\SCCN1Cc1ccc(Cl)nc1 [Thiacloprid, thiacloprid]
Difference of pEC50 values, nAChRs compared (Dα1/Dα2/Dα3/Dβ1/Dβ2 vs. Dα1/Dα2/Dα4/Dβ1/Dβ2): 0.17
Difference of pEC50 values, nAChRs compared (Dα1/Dα2/Dα3/Dβ1/Dβ2 vs. Dα1/Dα2/Dβ1/Dβ2/Dβ3): -0.53
Difference of pEC50 values, nAChRs compared (Dα1/Dα2/Dα3/Dβ1/Dβ2 vs. Dα1/Dα3/Dα4/Dβ1/Dβ2): -0.78
Difference of pEC50 values, nAChRs compared (Dα1/Dα2/Dα3/Dβ1/Dβ2 vs. Dα1/Dα3/Dβ1/Dβ2/Dβ3): -1.45
Difference of pEC50 values, nAChRs compared (Dα1/Dα2/Dα3/Dβ1/Dβ2 vs. Dα2/Dα3/Dα4/Dβ1/Dβ2): -0.81
Difference of pEC50 values, nAChRs compared (Dα1/Dα2/Dα3/Dβ1/Dβ2 vs. Dα2/Dα3/Dβ1/Dβ2/Dβ3): -1.13
Difference of Imax values [1]: -0.012
Difference of pEC50 values [1]: 0.55
Difference of Imax values [2]: -0.027
Difference of pEC50 values [2]: 0.63
Difference of Imax values [3]: -0.060
Difference of pEC50 values [3]: -0.27
Difference of Imax values [4]: 0.004
Difference of pEC50 values [4]: -0.13
Difference of Imax values [5]: 0.030
Difference of pEC50 values [5]: -0.35
Difference of Imax values [6]: 0.025
Difference of pEC50 values [6]: -0.59
Difference of Imax values [7]: 0.015
Difference of pEC50 values [7]: -0.08
Difference of Imax values [8]: 0.057
Difference of pEC50 values [8]: -0.98
Difference of Imax values [9]: -0.022
Difference of pEC50 values [9]: -0.81
Difference of Imax values [10]: -0.034
Difference of pEC50 values [10]: -0.26
Difference of Imax values [11]: -0.049
Difference of pEC50 values [11]: -0.18
Difference of Imax values [12]: -0.082
Difference of pEC50 values [12]: -1.08
Difference of Imax values (Dα1/Dα2/Dβ1 vs. Dα1/Dβ1/Dβ2): -0.018
Difference of pEC50 values (Dα1/Dα2/Dβ1 vs. Dα1/Dβ1/Dβ2): -0.94
Difference of Imax values (Dα1/Dα2/Dβ1 vs. Dα2/Dα3/Dβ1): -0.020
Difference of pEC50 values (Dα1/Dα2/Dβ1 vs. Dα2/Dα3/Dβ1): 0.00
Difference of Imax values [13]: 0.008
Difference of pEC50 values [13]: -1.16
Difference of Imax values (Dα1/Dα2/Dβ1 vs. Dα3/Dβ1/Dβ2): 0.003
Difference of pEC50 values (Dα1/Dα2/Dβ1 vs. Dα3/Dβ1/Dβ2): -1.40
Difference of Imax values [14]: 0.048
Difference of pEC50 values [14]: 0.82
Difference of Imax values [15]: 0.033
Difference of pEC50 values [15]: 0.90
Difference of Imax values [16]: 0.090
Difference of pEC50 values [16]: -0.08
Difference of Imax values [17]: 0.000
Difference of pEC50 values [17]: 0.34
Difference of Imax values [18]: -0.012
Difference of pEC50 values [18]: 0.89
Difference of Imax values (Dα1/Dα3/Dβ1 vs. Dα1/Dα2/Dβ1): 0.022
Difference of pEC50 values (Dα1/Dα3/Dβ1 vs. Dα1/Dα2/Dβ1): 1.15
Difference of Imax values [19]: -0.027
Difference of pEC50 values [19]: 0.97
Difference of Imax values [20]: -0.060
Difference of pEC50 values [20]: 0.07
Difference of Imax values (Dα1/Dα3/Dβ1 vs. Dα1/Dβ1/Dβ2): 0.004
Difference of pEC50 values (Dα1/Dα3/Dβ1 vs. Dα1/Dβ1/Dβ2): 0.21
Difference of Imax values (Dα1/Dα3/Dβ1 vs. Dα2/Dα3/Dβ1): 0.002
Difference of pEC50 values (Dα1/Dα3/Dβ1 vs. Dα2/Dα3/Dβ1): 1.15
Difference of Imax values [21]: 0.030
Difference of pEC50 values [21]: -0.01
Difference of Imax values (Dα1/Dα3/Dβ1 vs. Dα3/Dβ1/Dβ2): 0.025
Difference of pEC50 values (Dα1/Dα3/Dβ1 vs. Dα3/Dβ1/Dβ2): -0.25
Difference of Imax values [22]: -0.016
Difference of pEC50 values [22]: 0.68
Difference of Imax values [23]: -0.031
Difference of pEC50 values [23]: 0.76
Difference of Imax values [24]: -0.064
Difference of pEC50 values [24]: -0.14
Difference of Imax values [25]: 0.026
Difference of pEC50 values [25]: -0.22
Difference of Imax values (Dα1/Dβ1/Dβ2 vs. Dα3/Dβ1/Dβ2): 0.021
Difference of pEC50 values (Dα1/Dβ1/Dβ2 vs. Dα3/Dβ1/Dβ2): -0.46
Difference of Imax values (Dα1/Dβ1 vs. Dα1/Dα2/Dα3/Dβ1): 0.044
Difference of pEC50 values (Dα1/Dβ1 vs. Dα1/Dα2/Dα3/Dβ1): 0.06
Difference of Imax values [26]: 0.032
Difference of pEC50 values [26]: 0.61
Difference of Imax values (Dα1/Dβ1 vs. Dα1/Dα2/Dβ1): 0.066
Difference of pEC50 values (Dα1/Dβ1 vs. Dα1/Dα2/Dβ1): 0.87
Difference of Imax values (Dα1/Dβ1 vs. Dα1/Dα2/Dβ1/Dβ2): 0.017
Difference of pEC50 values (Dα1/Dβ1 vs. Dα1/Dα2/Dβ1/Dβ2): 0.69
Difference of Imax values (Dα1/Dβ1 vs. Dα1/Dα3/Dβ1): 0.044
Difference of pEC50 values (Dα1/Dβ1 vs. Dα1/Dα3/Dβ1): -0.28
Difference of Imax values (Dα1/Dβ1 vs. Dα1/Dα3/Dβ1/Dβ2): -0.016
Difference of pEC50 values (Dα1/Dβ1 vs. Dα1/Dα3/Dβ1/Dβ2): -0.21
Difference of Imax values (Dα1/Dβ1 vs. Dα1/Dβ1/Dβ2): 0.048
Difference of pEC50 values (Dα1/Dβ1 vs. Dα1/Dβ1/Dβ2): -0.07
Difference of Imax values (Dα1/Dβ1 vs. Dα2/Dα3/Dβ1): 0.046
Difference of pEC50 values (Dα1/Dβ1 vs. Dα2/Dα3/Dβ1): 0.87
Difference of Imax values (Dα1/Dβ1 vs. Dα2/Dα3/Dβ1/Dβ2): 0.074
Difference of pEC50 values (Dα1/Dβ1 vs. Dα2/Dα3/Dβ1/Dβ2): -0.29
Difference of Imax values (Dα1/Dβ1 vs. Dα3/Dβ1): 0.075
Difference of pEC50 values (Dα1/Dβ1 vs. Dα3/Dβ1): -0.01
Difference of Imax values (Dα1/Dβ1 vs. Dα3/Dβ1/Dβ2): 0.069
Difference of pEC50 values (Dα1/Dβ1 vs. Dα3/Dβ1/Dβ2): -0.53
Difference of Imax values [27]: -0.042
Difference of pEC50 values [27]: 0.90
Difference of Imax values [28]: -0.002
Difference of pEC50 values [28]: -0.81
Difference of Imax values [29]: -0.014
Difference of pEC50 values [29]: -0.26
Difference of Imax values [30]: -0.029
Difference of pEC50 values [30]: -0.18
Difference of Imax values [31]: -0.062
Difference of pEC50 values [31]: -1.08
Difference of Imax values (Dα2/Dα3/Dβ1 vs. Dα1/Dβ1/Dβ2): 0.002
Difference of pEC50 values (Dα2/Dα3/Dβ1 vs. Dα1/Dβ1/Dβ2): -0.94
Difference of Imax values [32]: 0.028
Difference of pEC50 values [32]: -1.16
Difference of Imax values (Dα2/Dα3/Dβ1 vs. Dα3/Dβ1/Dβ2): 0.023
Difference of pEC50 values (Dα2/Dα3/Dβ1 vs. Dα3/Dβ1/Dβ2): -1.40
Difference of Imax values [33]: -0.037
Difference of pEC50 values [33]: 1.14
Difference of Imax values [34]: -0.052
Difference of pEC50 values [34]: 1.22
Difference of Imax values [35]: -0.085
Difference of pEC50 values [35]: 0.32
Difference of Imax values [36]: 0.005
Difference of pEC50 values [36]: 0.24
Difference of Imax values (Dα3/Dβ1 vs. Dα1/Dα2/Dα3/Dβ1): -0.031
Difference of pEC50 values (Dα3/Dβ1 vs. Dα1/Dα2/Dα3/Dβ1): 0.07
Difference of Imax values [37]: -0.043
Difference of pEC50 values [37]: 0.62
Difference of Imax values (Dα3/Dβ1 vs. Dα1/Dα2/Dβ1): -0.009
Difference of pEC50 values (Dα3/Dβ1 vs. Dα1/Dα2/Dβ1): 0.88
Difference of Imax values (Dα3/Dβ1 vs. Dα1/Dα2/Dβ1/Dβ2): -0.058
Difference of pEC50 values (Dα3/Dβ1 vs. Dα1/Dα2/Dβ1/Dβ2): 0.70
Difference of Imax values (Dα3/Dβ1 vs. Dα1/Dα3/Dβ1): -0.031
Difference of pEC50 values (Dα3/Dβ1 vs. Dα1/Dα3/Dβ1): -0.27
Difference of Imax values (Dα3/Dβ1 vs. Dα1/Dα3/Dβ1/Dβ2): -0.091
Difference of pEC50 values (Dα3/Dβ1 vs. Dα1/Dα3/Dβ1/Dβ2): -0.20
Difference of Imax values (Dα3/Dβ1 vs. Dα1/Dβ1/Dβ2): -0.027
Difference of pEC50 values (Dα3/Dβ1 vs. Dα1/Dβ1/Dβ2): -0.06
Difference of Imax values (Dα3/Dβ1 vs. Dα2/Dα3/Dβ1): -0.029
Difference of pEC50 values (Dα3/Dβ1 vs. Dα2/Dα3/Dβ1): 0.88
Difference of Imax values (Dα3/Dβ1 vs. Dα2/Dα3/Dβ1/Dβ2): -0.001
Difference of pEC50 values (Dα3/Dβ1 vs. Dα2/Dα3/Dβ1/Dβ2): -0.28
Difference of Imax values (Dα3/Dβ1 vs. Dα3/Dβ1/Dβ2): -0.006
Difference of pEC50 values (Dα3/Dβ1 vs. Dα3/Dβ1/Dβ2): -0.52
